In US20090053294A1, “Anti Mineralocorticoid Therapy of Infection” (priority 2005, published 2009):

Tests used:
[1] = test system: fresh human peripheral blood lymphocytes (PBL); type: cell-based
[2] = in vivo; cited from earlier work
HIV-1 = conditions: PBL, MOI 0.2, day 7, RT activity in supernatant
Description: Fresh human peripheral blood lymphocytes (PBL) are isolated from voluntary Red Cross donors, seronegative for HIV and HBV. Leukophoresed blood is diluted 1:1 with Dulbecco's phosphate buffered saline (PBS) and layered over 14 mL of Ficoll-Hypaque density gradient in a 50mi centrifuge tube. Tubes are then centrifuged for 30 minutes at 600 Xg. Banded PBLs are gently aspirated from the resulting interface and subsequently washed 2× with PBS by low speed centrifugation. After final wash, cells are enumerated by trypan blue exclusion are re-suspended at 1×10^7/ml in RPMI 1640 with 15% fetal bovine serum (FBS), 2 mM L-glutamine, 4 ug/ml PHA-P and allowed to incubate for 48-72 hours at 37″C. After incubation, PBLs are centrifuged and reset in RPMI 1640 with 15% FBS, 2 mM L-glutamine, 100 U/ml penicillin, 100 ug/ml streptomycin, 10 ug/ml gentamycin, and 20 U/ml recombinant human IL-2. PBLs are maintained in this medium at a concentration. of 1-2×10^6/ml with biweekly medium changes, until use in assay protocol. […]
In the standard PBL assay (MOI: 0.2), the assay is ended on day 7 following collection of cell free supernatant samples for reverse transcriptase activity assay. […] Opti-Fluor O is added to each filter mat, and incorporated radioactivity is quantitated utilizing a Wallac 1450 Microbetaplus liquid scintillation counter. […]

progesterone receptors = molecular target: T1, progesterone receptors (Homo sapiens, UniProt P06401); conditions: cited from earlier work
T1 sequence (P06401 1-933): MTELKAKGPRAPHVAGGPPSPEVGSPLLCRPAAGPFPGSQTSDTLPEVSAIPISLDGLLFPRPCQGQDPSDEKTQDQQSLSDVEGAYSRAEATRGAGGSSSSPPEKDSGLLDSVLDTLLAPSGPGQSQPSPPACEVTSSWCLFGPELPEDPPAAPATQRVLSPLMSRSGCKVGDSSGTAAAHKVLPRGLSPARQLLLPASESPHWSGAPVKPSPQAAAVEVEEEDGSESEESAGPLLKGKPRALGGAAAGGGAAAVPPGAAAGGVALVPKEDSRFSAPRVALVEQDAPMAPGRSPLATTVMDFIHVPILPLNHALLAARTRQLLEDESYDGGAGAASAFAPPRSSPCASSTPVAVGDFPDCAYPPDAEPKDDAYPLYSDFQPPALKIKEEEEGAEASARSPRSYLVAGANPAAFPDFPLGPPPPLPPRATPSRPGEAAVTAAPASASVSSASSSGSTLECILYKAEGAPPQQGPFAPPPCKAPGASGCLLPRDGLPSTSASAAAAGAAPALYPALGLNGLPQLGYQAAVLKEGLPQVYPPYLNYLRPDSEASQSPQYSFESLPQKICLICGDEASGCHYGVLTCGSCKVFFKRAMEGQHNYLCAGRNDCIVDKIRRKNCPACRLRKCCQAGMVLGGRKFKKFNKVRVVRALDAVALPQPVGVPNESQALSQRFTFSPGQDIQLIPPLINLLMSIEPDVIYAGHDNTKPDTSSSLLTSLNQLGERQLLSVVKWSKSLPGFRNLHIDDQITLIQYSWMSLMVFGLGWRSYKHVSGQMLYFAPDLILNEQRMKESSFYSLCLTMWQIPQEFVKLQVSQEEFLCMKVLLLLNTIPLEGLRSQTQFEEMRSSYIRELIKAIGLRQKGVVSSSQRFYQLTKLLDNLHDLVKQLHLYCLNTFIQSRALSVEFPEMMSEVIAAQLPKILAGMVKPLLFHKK

[3] = 50 mg dose; cited from earlier work
[4] = test system: monocytotropic HIV-1 isolates; test: Anti-HIV activity in fresh human monocyte-macrophages (p24 ELISA); type: cell-based; conditions: MOI 0.1, p24 ELISA day 7 post-infection
Description: (§1) For isolation of adherent cells, 3×10^6 non-PHA stimulated peripheral blood cells are resuspended in Hanks buffered saline (with calcium and magnesium) supplemented with 10% human AB serum. The cells are placed in a 96-well microtiter plate at 37° C. for 2 hours. Non-adherent cells are removed by vigorously washing six times. The adherent cells are cultured for 7 days in RPMI 1640 tissue culture medium with 15% fetal bovine serum. The cultures are carefully monitored for confluency during this incubation period. Infection of the cells is performed with monocytotropic HIV-1 isolates. High titer pools of each of these viruses are harvested from Infected cultures of peripheral blood adherent cells and frozen in 1.0 ml aliquots at […]. […] Compounds to be evaluated in the monocyte-macrophage assay are added to the monolayers shortly before infection in order to maximize the potential for identifying active compounds.
(§2) At 2 days post-infection, the medium is decanted and the cultures washed twice with complete medium in order to remove excess virus. […] Control curves are generated in each assay to accurately quantitate the amount of capsid protein in each sample. Data is obtained by spectrophotometric analysis at 450 nm using a Molecular Devices Vmax plate reader. P24 concentrations are calculated from the optical density values by use of the Molecular Device software package Soft Max.

[5] = test system: fresh human monocyte-macrophages; test: Cytotoxicity in monocyte-macrophages (XTT staining); type: cell-based; conditions: XTT staining day 7 post-infection
Description: as §1, §2

| SMILES | health / cell growth of T-lymphocyte cultures [1] | extent of metabolism [2] | % HIV-1 levels / viral replication in T-lymphocyte cultures (HIV-1) | binding affinity for progesterone receptors (progesterone receptors) | Na+/K+ effect [3] | HIV-1 levels in macrophages [4] | cell viability in macrophages [5] |
| --- | --- | --- | --- | --- | --- | --- | --- |
| CC(=O)S[C@@H]1CC2=CC(=O)CC[C@]2(C)[C@H]2CC[C@@]3(C)[C@@H](CC[C@@]34CCC(=O)O4)[C@H]12 [spironolactone, 17-hydroxy-7-alpha-mercapto-3oxo-17-alpha-pregn-4ene-21-carboxylic acid gamma-lactone acetate] | remain healthy at all concentrations | extensively metabolised | decreased in a dose dependent manner | – | – | – | – |
| COC(=O)[C@@H]1CC2=CC(=O)CC[C@]2(C)[C@@]23O[C@@H]2C[C@@]2(C)[C@@H](CC[C@@]24CCC(=O)O4)[C@H]13 [Epoxymexrenone, epoxymexrenone] | – | – | – | reduced | equipotent with spironolactone | – | – |
| C[C@]12CCC(=O)C=C1C=C[C@@H]1[C@@H]2CC[C@@]2(C)[C@H]1CC[C@@]2(O)CCC(=O)O [potassium canrenoate] | remain healthy at all concentrations | – | decreased in a dose dependent manner | – | – | decreased in a dose dependent fashion | little effect on cell viability |
